{"source": "patent US9517244B2", "about": "“Therapeutic combinations for use in neoplasia” (University of Florida Research Foundation, Inc., priority 2011, dated 2016)", "key": {"[1]": {"system": "Mia-PaCa2", "experiment": "MTT assay, pancreatic cancer cell line", "assay_type": "cell-based, human", "details": "Homo sapiens, MIA PaCa-2; Mia-PaCa2 (dFdC-resistant); single agent; 72 h; read-out: IC50"}, "[2]": {"target": "DNA ligase I (Homo sapiens, UniProt P18858)", "sequence (P18858 whole entry, species assumed)": "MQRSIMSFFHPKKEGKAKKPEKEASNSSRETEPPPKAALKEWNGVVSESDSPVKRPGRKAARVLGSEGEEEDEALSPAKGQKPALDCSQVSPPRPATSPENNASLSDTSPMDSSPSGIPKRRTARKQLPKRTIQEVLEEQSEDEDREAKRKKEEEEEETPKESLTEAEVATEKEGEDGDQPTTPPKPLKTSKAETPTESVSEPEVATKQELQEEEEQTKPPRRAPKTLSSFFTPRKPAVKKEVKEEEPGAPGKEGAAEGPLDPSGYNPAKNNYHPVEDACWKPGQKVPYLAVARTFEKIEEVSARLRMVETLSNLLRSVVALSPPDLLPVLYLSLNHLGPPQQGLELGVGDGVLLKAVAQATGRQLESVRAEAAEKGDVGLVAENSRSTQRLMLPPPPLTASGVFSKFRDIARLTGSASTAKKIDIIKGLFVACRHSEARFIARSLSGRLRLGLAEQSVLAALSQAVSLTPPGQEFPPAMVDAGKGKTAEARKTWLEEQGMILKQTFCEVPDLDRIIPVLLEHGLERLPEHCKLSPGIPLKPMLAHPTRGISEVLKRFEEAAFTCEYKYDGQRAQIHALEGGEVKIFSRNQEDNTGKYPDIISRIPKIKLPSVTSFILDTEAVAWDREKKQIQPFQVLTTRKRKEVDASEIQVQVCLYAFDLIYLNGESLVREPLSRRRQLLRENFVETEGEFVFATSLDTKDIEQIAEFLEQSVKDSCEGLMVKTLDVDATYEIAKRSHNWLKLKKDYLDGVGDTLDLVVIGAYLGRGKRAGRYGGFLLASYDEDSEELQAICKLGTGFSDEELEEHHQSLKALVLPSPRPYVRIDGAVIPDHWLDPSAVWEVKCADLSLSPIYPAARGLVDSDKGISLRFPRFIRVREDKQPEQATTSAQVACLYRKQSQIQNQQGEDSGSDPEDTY", "experiment": "DNA ligase I activity in vitro", "assay_type": "biochemical", "details": "DNA ligase I 1 nM", "description": "(§1) Lanes 4-7 contained increasing concentrations of NSC-30049 (0.5, 1, 2.5, and 5 μM, respectively). The arrows indicate the positions of the 63-mer substrate and the products. […] Data are representative of three different experiments."}, "[3]": {"target": "T1, APE1 (Homo sapiens, UniProt P27695)", "T1 sequence (P27695 whole entry)": "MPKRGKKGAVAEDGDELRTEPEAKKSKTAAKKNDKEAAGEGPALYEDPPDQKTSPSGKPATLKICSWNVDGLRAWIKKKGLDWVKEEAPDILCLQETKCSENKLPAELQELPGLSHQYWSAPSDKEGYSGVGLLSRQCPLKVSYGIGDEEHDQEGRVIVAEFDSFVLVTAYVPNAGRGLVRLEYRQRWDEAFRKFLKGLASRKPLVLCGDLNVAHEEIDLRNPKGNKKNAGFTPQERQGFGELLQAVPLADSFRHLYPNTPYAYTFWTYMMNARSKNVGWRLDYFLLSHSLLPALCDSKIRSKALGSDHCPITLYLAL", "experiment": "fluorescence anisotropy, APE1 binding to AP-site DNA", "text": "FIGS. 7A and 7B show the effect of NSC-30049 on the APE1 affinity for AP-lesion containing DNA. […] FIG. 7B is a table showing the apparent Kd values of the data. Values are the mean±SD of triplicate estimations.\nThe small molecule inhibitor (SMI), NSC-30049, was identified as an inhibitor of APE1 endonuclease activity by molecular docking."}, "[4]": {"system": "Aldh1a1 and Aldh1a7 expression in GBM-L0 stem cells", "experiment": "qRT-PCR of aldehyde dehydrogenase genes in GBM-L0 stem cells", "assay_type": "cell-based", "details": "36 h", "description": "Cells were pretreated with 2.5 μM of NSC30049 or 10 or 100 μM TMZ alone or in combination with NSC-30049 for 36 h. Then, total RNA was isolated and processed for gRT-PCR. Data presented are the mean±SE of three different measurements. […] Treatment with NSC-30049 or TMZ reduced the expression of aldehyde dehydrogenase gene Aldh1a7 in GBM-LO stem cell line in vitro, but not treatment with NSC-30049 and TMZ. Cells were pretreated with 2.5 μM of NSC30049 or 10 or 100 μM of TMZ alone or in combination with NSC-30049 for 36 h. Then, total RNA was isolated and processed for qRT-PCR. Data presented are the mean±SE of three different measurements.\nWithout being bound to a particular theory, the effect of administration of NSC-30049 in combination with temozolomide (TMZ) on the expression of self-renewal marker genes of […] was analyzed. Self-renewal marker genes are highly expressed in colon cancer stem cells compared to human parental cancer cells. qRT-PCR data of CD133+, Oct4, Sox2 and Nanog gene expression levels of GBM-L0 stem cells was obtained (FIG. 14A). Cells were pretreated with 2.5 μM of NSC30049 or 10 or 100 μM of TMZ alone or in combination with NSC-30049 for 36 h. Then, total RNA was isolated and processed for qRT-PCR. Data presented are the mean±SE of three different measurements. […]"}, "[5]": {"system": "CD133, Nanog, Oct4, Sox2 expression in human parental cancer cells", "experiment": "qRT-PCR of self-renewal marker genes in parental cancer cells", "assay_type": "cell-based", "details": "1.25 μM NSC-30049 + 1.25 μM OPT, 72 h, compared to either alone", "description": "Cells were treated with 1.25 μM of NSC-30049 and 1.25 μM of OPT either alone or in combination for 72 h. Data are mean±SD of triplicate experiments. FIG. 9B depicts the inhibition in expression of self-renewal marker genes of colon cancer stem cells, qRT-PCR data of CD133+, Oct4, Sox2 and Nanog gene expression levels of parental cancer cells and colon cancer stem cells was obtained. Cells were treated with 1.25 μM of NSC-30049 and 1.25 μM of OPT either alone or in combination for 72 h. Fold change in gene expression values is shown as mean±SD of three experiments and are normalized to GAPDH gene expression.\nWithout being bound to a particular theory, the effect of administration of NSC-30049 in combination with oxaliplatin (OPT) on the expression of self-renewal marker genes of colon cancer stem cells was analyzed. Self-renewal marker genes are highly expressed in colon cancer stem cells compared to human parental cancer cells. qRT-PCR data of CD133+, Oct4, Sox2 and Nanog gene expression levels of parental cancer cells and colon cancer stem cells was obtained (FIG. 9B). Cells were treated with 1.25 μM of NSC-30049 and 1.25 μM of OPT either alone or in combination for 72 h. The fold change in gene expression values is shown as mean±SD of three experiments and were normalized to GAPDH gene expression. […]"}, "[6]": {"target": "Pol-β (Homo sapiens, UniProt P06746)", "experiment": "Pol-β-directed strand-displacement synthesis, reconstituted in vitro assay", "assay_type": "biochemical", "details": "0.5, 1, 2.5 and 5 μM", "description": "as §1"}, "[7]": {"system": "PANC1", "experiment": "MTT assay, pancreatic cancer cell line", "assay_type": "cell-based, human", "details": "Homo sapiens, PANC-1; PANC1 (dFdC-resistant); single agent; 72 h; read-out: IC50"}, "[8]": {"system": "MiaPaCa2-Lu tumors", "experiment": "orthotopic MiaPaCa2-Lu tumors in athymic mice, tumor luciferase expression", "assay_type": "in vivo", "details": "combination treatment of NSC-30049 and CDDP", "text": "FIG. 8A depicts in situ imaging of orthotopic MiaPaCa2-Lu tumors growing in female athymic (nu/nu) mice."}, "[9]": {"target": "T1, APE1", "experiment": "in vitro APE1 activity assay with purified APE1 and 32P-labeled 63-mer F-DNA", "assay_type": "biochemical", "text": "FIGS. 4A and 4B depict the screening of small molecules. FIG. 4A depicts an in vitro assay system to determine the effect of compounds on the blockage of APE1-activity using purified APE1 and ^32P-labeled 63-mer F-DNA. FIG. 4B is a gel depicting the effect of the small molecules on APE1 activity. […] Data are representative of duplicate experiments.\nFIG. 5A depicts an in vitro assay protocol using purified APE1 protein. FIG. 5B is an image of a gel showing a dose-dependent effect of NSC-30049 on APE1 activity. […] FIG. 5C is a graph depicting the percent cleavage and the IC50 of NSC-30049 to block APE1 activity, showing that APE1 is blocked in a dose-dependent manner. Data is mean±SE of three different experiments.\nTo determine the effect of compounds on the blockage of APE1 activity, an in vitro assay system was developed using purified APE1 and ^32P-labeled 63-mer F-DNA (FIG. 4A). Several small molecules (NSC-9746, NSC-18468, NSC-2137, NAC-30049 and NSC-32895) were screened for their ability to inhibit APE1 activity in the in vitro assay (FIG. 4B)."}, "[10]": {"target": "Fen1 (Homo sapiens, UniProt P39748)", "sequence (P39748 whole entry, species assumed)": "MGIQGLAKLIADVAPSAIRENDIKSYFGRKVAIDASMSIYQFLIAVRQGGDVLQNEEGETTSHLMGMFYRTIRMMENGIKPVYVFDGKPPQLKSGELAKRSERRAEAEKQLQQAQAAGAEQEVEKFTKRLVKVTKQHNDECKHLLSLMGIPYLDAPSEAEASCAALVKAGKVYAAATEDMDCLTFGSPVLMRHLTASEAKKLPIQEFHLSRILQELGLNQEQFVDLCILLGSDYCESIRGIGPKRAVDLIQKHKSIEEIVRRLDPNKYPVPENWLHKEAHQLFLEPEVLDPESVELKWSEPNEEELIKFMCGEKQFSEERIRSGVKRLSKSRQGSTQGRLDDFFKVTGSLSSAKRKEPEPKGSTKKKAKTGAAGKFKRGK", "experiment": "Fen1 activity in vitro", "assay_type": "biochemical", "details": "0.5-5 μM; Fen1 1 nM", "description": "as §1"}}, "data": [{"molecule": "ClCC=CC[N+]12CN3CN(CN(C3)C1)C2", "note": "[NSC-30049, 1-(4-Chloro-2-butenyl)-1λ˜5˜,3,5,7-tetraazatricyclo[3.3.1.1˜3,7˜]decane]", "values": [{"measurement": "IC50", "setting": "[1]", "value": "5.12 ± 0.22", "unit": "µM"}, {"measurement": "effect on DNA ligase I activity", "setting": "[2]", "value": "did not affect DNA ligase I activity"}, {"measurement": "binding of APE1 with AP-site DNA", "setting": "[3]", "value": "blocked the binding of APE1 with AP-site DNA in a dose-dependent manner"}, {"measurement": "expression of Aldh1a1", "setting": "[4]; 2.5 μM NSC-30049 + 10 or 100 μM TMZ", "value": "significantly inhibited the expression of Aldh1a1"}, {"measurement": "expression of Aldh1a7", "setting": "[4]; agent alone", "value": "inhibited"}, {"measurement": "expression of CD133, Nanog, Oct4, and Sox2", "setting": "[5]", "value": "inhibited the expression of CD133, Nanog, Oct4, and Sox2 in human parental cancer cells"}, {"measurement": "effect on Pol-β-directed strand-displacement synthesis", "setting": "[6]", "value": "did not affect Pol-β-directed strand-displacement synthesis"}, {"measurement": "IC50", "setting": "[7]", "value": "5.12 ± 0.22", "unit": "µM"}, {"measurement": "inhibition of tumor growth (tumor luciferase expression)", "setting": "[8]", "value": "synergistic effect on the inhibition of MiaPaCa2-Lu tumor growth"}, {"measurement": "inhibition of APE1 activity in screen", "setting": "[9]; 5, 10, 20 and 40 μM", "value": "inhibit APE1 activity in the in vitro assay at all concentrations tested"}, {"measurement": "IC50", "setting": "[9]; purified APE1, read-out: IC50 to block APE1 activity", "value": 0.0072, "unit": "µM"}, {"measurement": "effect on Fen1 activity", "setting": "[10]", "value": "did not affect Fen1 activity"}]}]}
